Reference: US4164576A, “Benzoxazine carboxamides” (Shell Oil Company, priority 1978, dated 1979)

What follows are molecules tested on swine adipose tissue (assay: Inhibition of lipogenesis (lipid synthesis from glucose-U-14C) in swine adipose tissue slices). Conditions: Sus scrofa, 100 micrograms per milliliter, 37° C., 2 hours, 5% DMSO, insulin, triplicate, read-out: Percent Inhibition of lipogenesis compared to control.
Type: cell-based
Excerpt: The manner in which they cause this effect is not known with certainty; it is believed that they interfere with the synthesis of fatty acids in the tissues. Their effectiveness for this purpose has been ascertained by immersing samples of swine adipose tissue in a liquid medium containing radioactive glucose and the test chemical for a period of time, then isolating the lipid from the treated tissue and determining the up-take of the radio-active carbon by means of scintillation counting techniques. These tests were conducted in swine adipose tissue because in swine, the primary site of lipogenesis--i.e., fatty acid synthesis--appears to be adipose tissue.
Described in more detail, the tests were conducted according to the following general procedure:
150 milligrams of slices of swine adipose tissue were incubated at 37° C. for 2 hours with shaking in 3 milliliters of Krebs-Rringer bicarbonate solution containing one-half the normal calcium ion concentration, 60 micromoles of glucose, 0.5 micro-Curie of glucose-U^14 C, and 300 microunits of insulin, and 5% dimethyl sulfoxide (DMSO). The test compounds were added as a solution or suspension in DMSO and were present at a concentration of 100 micrograms per milliliter of the incubation mixture.
The incubation was terminated by addition of 0.25 milliliter of 1 N sulfuric acid. The resulting mixture was extracted with a total of 25 milliliters of chloroform: methanol (2:1 v/v). The extracts were washed according to Folch et al. (J. Biol. Chem., 226, 497-509, (1957)), air dried, and counted in a liquid scintillation counter with 15 milliliters of counting fluid (two parts toluene containing 0.4% w/v New England Nuclear Omnifluor: 1 part Triton X-100). The tests were conducted in triplicate and were accompanied by control tests in which all ingredients,proportions and conditions were the same except that no test compound was included. From the data obtained were calculated the percent inhibition of lipid synthesis by the test compounds in each case. The data obtained from the tests are set out in Table 1, as the percent inhibition of lipogenesis compared to the results obtained in the control tests wherein only the test compound was omitted.
C=CCNC(=O)C1CNc2cc(C(F)(F)F)ccc2O1 (centres unmarked) [Compound 6, 6-(trifluoromethyl)-3,4-dihydro-N-(2-propenyl)-2H-1,4-benzoxazine-2-carboxamide] showed an inhibition at 100 µg/mL of 57%.
For C=CCNC(=O)C1CNc2cc(Cl)ccc2O1 (centres unmarked) [Compound 3, 6-chloro-3,4-dihydro-N-(2-propenyl)-2H-1,4-benzoxazine-2-carboxamide], the inhibition at 100 µg/mL was 63%.
C=CCNC(=O)C1CNc2cc(C)ccc2O1 (centres unmarked) [Compound 4, 6-methyl-3,4-dihydro-N-(2-propenyl)-2H-1,4-benzoxazine-2-carboxamide] showed an inhibition at 100 µg/mL of 57%.
C=CCNC(=O)C1CNc2ccccc2O1 (centres unmarked) [Compound 1, 3,4-dihydro-N-(2-propenyl)-2H-1,4-benzoxazine-2-carboxamide] was tested, and the inhibition at 100 µg/mL was 51%.
For C=CCNC(=O)C1CNc2cc(OC)ccc2O1 (centres unmarked) [Compound 7, 3,4-dihydro-6-methoxy-N-(2-propenyl)-2H-1,4-benzoxazine-2-carboxamide], the inhibition at 100 µg/mL was 76%.
Work on C=CCNC(=O)C1CNc2cc(NS(C)(=O)=O)ccc2O1 (centres unmarked) [Compound 5, 3,4-dihydro-6-((methylsulfonyl)amino)-N-(2-propenyl)-2H-1,4-benzoxazine-2-carboxamide] yielded an inhibition at 100 µg/mL of 40%.
In the case of C=CCNC(=O)C1CNc2cccc(Cl)c2O1 (centres unmarked) [Compound 8, 8-chloro-3,4-dihydro-N-(2-propenyl)-2H-1,4-benzoxazine-2-carboxamide], the inhibition at 100 µg/mL is reported as 24%.
Work on C=CCNC(=O)C1CN(C)c2ccccc2O1 (centres unmarked) [Compound 2, 3,4-dihydro-4-methyl-N-(2-propenyl)-2H-1,4-benzoxazine-2-carboxamide] yielded an inhibition at 100 µg/mL of 40%.
Molecule C=CCNC(=O)C1CNc2cc(-c3ccccc3)ccc2O1 (centres unmarked) [Compound 11, 3,4-dihydro-6-phenyl-N-(2-propenyl)-2H-1,4-benzoxazine-2-carboxamide] has an inhibition at 100 µg/mL of 70%.
C=CCNC(=O)C1CNc2ccc(C)cc2O1 (centres unmarked) [Compound 10, 3,4-dihydro-7-methyl-N-(2-propenyl)-2H-1,4-benzoxazine-2-carboxamide] was tested, and the inhibition at 100 µg/mL was 21%.
Molecule C=CCNC(=O)C1CNc2cc(Cl)c(Cl)cc2O1 (centres unmarked) [Compound 9, 6,7-dichloro-3,4-dihydro-N-(2-propenyl)-2H-1,4-benzoxazine-2-carboxamide] has an inhibition at 100 µg/mL of 44%.
